Experimental data as given in US6518316B1, “Cytokine production and tyrosine kinase inhibitors” (Xenova Limited, priority 1998, dated 2003).
pIC50: −log10 of the molar value. Where two headings read alike, the source gives them in different places. Values belong to the compound of their own block, whether it stands above or below them.

Experiments:
[1] = test system: IL-2 production by Jurkat E6-1 cells; experiment: Cytokine (IL-2) release from PMA pre-treated, anti-CD28 stimulated Jurkat E6-1 cells (DELFIA); format: cell-based; details: for pIC50: anti-CD28, 18 hours, read-out: IC50 for the inhibition of anti-CD28 induced IL-2 production by Jurkat E6-1 cells
Protocol: Jurkat E6-1 cell line was obtained from American Tissue Culture Collection (ATCC, Rockville, USA). The cells were pre-treated with 3 ng/ml phorbol myristate acetate (PMA) for three hours, washed and exposed to dose ranges of the compound to be tested followed by the addition of 5 μg/ml anti-CD28.
After 18 hours incubation at 37° C. and 5% CO2, cell culture supernatants were harvested for determination of IL-2 secretion by Dissociation Enhanced Lanthanide Fluorescence Immuno Assay (DELFIA). The effect of compound on cell cytotoxicity was determined using a redox potential sensitive dye, resazurin. Effects on protein synthesis were determined by investigation of [^3H] leucine uptake.

recombinant abl kinase = recombinant abl kinase (Homo sapiens, UniProt P00519); experiment: Inhibition of tyrosine kinase activity (abl kinase, LANCE time resolved fluorescence); format: biochemical; details: for pIC50: abl kinase, peptide 6-20 p34cdc substrate
Sequence of recombinant abl kinase (P00519 whole entry): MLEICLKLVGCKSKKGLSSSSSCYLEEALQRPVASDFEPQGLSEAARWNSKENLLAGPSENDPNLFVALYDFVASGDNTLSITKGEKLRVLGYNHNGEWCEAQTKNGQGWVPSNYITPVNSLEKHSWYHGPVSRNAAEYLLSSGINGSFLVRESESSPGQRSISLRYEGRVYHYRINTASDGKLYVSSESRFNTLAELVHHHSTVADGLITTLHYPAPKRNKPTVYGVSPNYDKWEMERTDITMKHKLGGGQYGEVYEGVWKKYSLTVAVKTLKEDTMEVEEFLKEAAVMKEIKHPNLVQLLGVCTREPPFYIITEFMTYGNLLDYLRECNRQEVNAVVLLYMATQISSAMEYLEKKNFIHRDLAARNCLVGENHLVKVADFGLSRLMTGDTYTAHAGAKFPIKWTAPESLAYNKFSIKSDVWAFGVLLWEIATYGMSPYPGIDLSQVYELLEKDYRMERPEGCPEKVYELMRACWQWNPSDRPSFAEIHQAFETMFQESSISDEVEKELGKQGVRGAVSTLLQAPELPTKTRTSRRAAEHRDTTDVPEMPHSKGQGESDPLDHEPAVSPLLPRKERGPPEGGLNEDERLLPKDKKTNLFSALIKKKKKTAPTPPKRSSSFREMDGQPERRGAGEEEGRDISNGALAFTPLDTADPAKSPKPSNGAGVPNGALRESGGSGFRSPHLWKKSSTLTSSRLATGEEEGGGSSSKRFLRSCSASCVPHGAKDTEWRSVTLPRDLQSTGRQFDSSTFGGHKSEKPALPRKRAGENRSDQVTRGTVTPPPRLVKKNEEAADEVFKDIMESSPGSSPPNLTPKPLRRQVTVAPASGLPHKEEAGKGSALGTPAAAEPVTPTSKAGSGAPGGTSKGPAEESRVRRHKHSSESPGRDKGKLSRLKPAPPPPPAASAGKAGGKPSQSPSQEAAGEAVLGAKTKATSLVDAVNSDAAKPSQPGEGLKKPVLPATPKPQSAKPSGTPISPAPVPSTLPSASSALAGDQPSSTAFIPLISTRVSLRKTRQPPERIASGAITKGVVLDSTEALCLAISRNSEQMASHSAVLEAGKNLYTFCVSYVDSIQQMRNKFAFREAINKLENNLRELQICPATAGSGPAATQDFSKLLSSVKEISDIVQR
From the text: Phosphorylation of the peptide substrate was detected using a non-separation time resolved fluorescence assay (LANCE™) using anti-phosphotyrosine conjugated europium and streptavidin conjugated allophycocyanin (APC).

[2] = test system: IL2 production by T cells; experiment: Cytokine (IL-2) release from purified T cells stimulated with anti-CD3 and anti-CD28 (DELFIA); format: cell-based; details: Homo sapiens, T-cell
From the text: The effect of compound (Ia) on IL-2 release was investigated using a previously described method (Van Cool S. W. et al., (1993) J. Immunol. 150: 3254-3263). T cells were purified by depletion of B cells and monocytes from Buffy coats obtained from normal healthy donors following separation of human peripheral blood mononuclear cells (PBMC) on Lymphoprep. Purified T cells were suspended in RPMI 1640 supplemented with 5% fetal bovine serum (FBS) and aliquoted into 96 well plates coated with anti-CD3. Cells were exposed to dose ranges of the compound to be tested followed by the addition of 5 μg/ml anti-CD28 and incubated for 18 hours at 37° C. and 5% CO2. IL-2 secretion in cell culture supernatants was determined using IL-2 DELFIA.

IL-2 = IL-2 release from PHA and LPS stimulated whole blood (DELFIA); format: cell-based; details: Homo sapiens
Protocol: (§1) Whole blood samples obtained from up to seven normal healthy volunteers were diluted in an equal volume of RPMI 1640 with 5% FBS and exposed to dose ranges of compound (Ia) followed by the addition of 10 μg/ml phytohaemagglutinin (PHA) and 100 ng/ml LPS. After incubation for 48 hours at 37° C. and 5% CO2 serum samples were harvested for determination of effect on IL-2 and TNF-α secretion using DELFIAs specific for each cytokine respectively.

TNF-α = TNF-α release from PHA and LPS stimulated whole blood (DELFIA); format: cell-based; details: Homo sapiens
Protocol: as §1

T cells = experiment: Toxicity to T cells; format: cell-based, human; details: 0.06 to 7 μM
[3] = test system: TNF-α secretion by monocytes; experiment: Cytokine (TNF-α) release from LPS stimulated monocytes (DELFIA); format: cell-based; details: Homo sapiens, Monocyte
Protocol: The effect of compound (Ia) on TNF-α release was investigated using a previously described method (Bakouche, O. et al., (1992), J. Immunol: 14, 84-91). Human monocytes were purified by elutriation from Buffy coats obtained from normal healthy donors after the separation of peripheral blood mononuclear cells (PBMC) on Lymphoprep. The monocytes were suspended in RPMI 1640 with 5% FBS and exposed to dose ranges of the compound to be tested followed by the addition of 1 ng/ml LPS. After incubation for 18 hours at 37° C. and 5% CO2 cell culture supernatants were harvested and stored at −70° C. Effects on TNF-α release were determined using a DELFIA.

[4] = Homo sapiens, Jurkat E6.1, PMA pre-treated

pIC50 [1, 4]: 5.60
Structure (SMILES): CO[C@H]1[C@@H](O)c2c(O)cccc2C2=C3CCC(=O)c4c(O)ccc(c43)[C@H]21 [Compound (Ib)]

pIC50 (recombinant abl kinase): < 6.00
pIC50 [1, 4]: 5.89
Structure (SMILES): COC1C(O)c2c(O)cccc2C2=C3CCC(NC4CC4)c4c(O)ccc(c43)C21 (stereo not drawn) [Compound 5, 3-Cyclopropylamino-7-methoxy-1,2,3,6b, 7,8-hexahydrobenzo[d]fluoranthen-4,8,9-triol]

pIC50 (recombinant abl kinase): 7.35
pIC50 ([1]; PMA pre-treated): 5.97
Structure (SMILES): COC1c2c(O)cccc2C2=C3CCC(=O)c4c(O)ccc(c43)C2C1OC (stereo not drawn) [Compound 11, 4,9-Dihydroxy-7,8-dimethoxy-1,6b,7,8-tetrahydro-2H-benzo[j]fluroanthen-3-one]

pIC50 ([1]; PMA pre-treated): 5.37
Structure (SMILES): COC1c2c(O)cccc2C2=C3CCC(=O)c4c(O)ccc(c43)C2C1OC (stereo not drawn) [Compound (III)]

pIC50 (recombinant abl kinase): < 6.00
pIC50 [1, 4]: 5.53
Structure (SMILES): COC1C(O)c2c(O)cccc2C2=C3CCC(O)c4c(O)ccc(c43)C21 (single isomer, unassigned) [Compound 2a]

Structure (SMILES): COC1C(O)c2c(O)cccc2C23OC24CCC(=O)c2c(O)ccc(c24)C13 (stereo not drawn) [Compound 3]
pIC50 (recombinant abl kinase): 6.15
pIC50 [1, 4]: < 5.02

pIC50 (recombinant abl kinase): 6.56
pIC50 [1, 4]: 5.63
Structure (SMILES): CCOC1c2c(O)cccc2C2=C3CCC(=O)c4c(O)ccc(c43)C2C1OC (stereo not drawn) [Compound 10, 8-Ethoxy-4,9-dihydroxy-7-methoxy-1,6b,7,8-tetrahydro-2H-benzo[j]fluoranthen-3-one]

pIC50 (recombinant abl kinase): < 6.00
pIC50 [1, 4]: 5.18
Structure (SMILES): COc1cccc2c1C(O)C(OC)C1C2=C2CCC(=O)c3c(O)ccc1c32 (stereo not drawn) [Compound 4]

pIC50 (recombinant abl kinase): < 6.00
Structure (SMILES): COC1C(O)c2c(O)cccc2C2=C3CCC(=O)c4c(O)c(Cl)cc(c43)C21 (stereo not drawn) [Compound 8, 5-Chloro-4,8,9-trihydroxy-7-methoxy-1,6b,7,8-tetrahydro-2H-benzo[j]fluoranthen-3-one]

pIC50 (recombinant abl kinase): < 6.00
pIC50 [1, 4]: < 5.83
Structure (SMILES): COC1C(O)c2c(O)cccc2C2=C3CCC(=NO)c4c(O)ccc(c43)C21 (stereo not drawn) [Compound 7, 4,8,9-Trihydroxy-7-methoxy-1,6b,7,8-tetrahydro-2H-benzo[j]fluoranthen-3-one oxime]

pIC50 (recombinant abl kinase): 6.88
pIC50 [1, 4]: 4.96
Structure (SMILES): CCCOC1c2c(O)cccc2C2=C3CCC(=O)c4c(O)ccc(c43)C2C1OC (stereo not drawn) [Compound 9, 4,9-Dihydro-7-methoxy-8-propoxy-1,6b,7,8-tetrahydro-2H-benzo[j]fluoranthen-3-one]

pIC50 (recombinant abl kinase): < 5.30
pIC50 [1, 4]: < 5.30
Structure (SMILES): COC1C(=O)c2c(O)cccc2C2=C3CCC(=O)c4c(O)ccc(c43)C21 (stereo not drawn) [Compound (II)]

pIC50 ([2]; 18 hours, read-out: IC50 for inhibition of anti-CD3 and anti-CD28 induced IL2 production by T cells): 6.92
pIC50 (IL-2; Donor 1, read-out: IC50 Inhibition of IL-2): 6.66
pIC50 (IL-2; Donor 2, read-out: IC50 Inhibition of IL-2): 5.92
pIC50 (IL-2; Donor 3, read-out: IC50 Inhibition of IL-2): 6.37
pIC50 (IL-2; Donor 4, read-out: IC50 Inhibition of IL-2): < 5.57
pIC50 (IL-2; Donor 5, read-out: IC50 Inhibition of IL-2): > 6.40
pIC50 (IL-2; Donor 6, read-out: IC50 Inhibition of IL-2): > 6.40
pIC50 (TNF-α; Donor 1, read-out: IC50 Inhibition of TNF-α): 4.85
pIC50 (TNF-α; Donor 2, read-out: IC50 Inhibition of TNF-α): 4.85
pIC50 (TNF-α; Donor 3, read-out: IC50 Inhibition of TNF-α): 6.15
pIC50 (TNF-α; Donor 4, read-out: IC50 Inhibition of TNF-α): < 5.57
pIC50 (TNF-α; Donor 5, read-out: IC50 Inhibition of TNF-α): 5.28
pIC50 (TNF-α; Donor 6, read-out: IC50 Inhibition of TNF-α): 5.52
concentrations at which phosphorylation of the peptide by abl kinase was inhibited (recombinant abl kinase): 0.001 to 5.2 µM
inhibition at 0.001 µM (recombinant abl kinase; 0.001 μM): 39%
inhibition at 0.01 µM (recombinant abl kinase; 0.01 μM): 56.2%
inhibition at 0.081 µM (recombinant abl kinase; 0.081 μM): 86.3%
inhibition at 0.65 µM (recombinant abl kinase; 0.65 μM): 98.6%
inhibition at 5.2 µM (recombinant abl kinase; 5.2 μM): 100%
pIC50 (recombinant abl kinase): 8.22
pIC50 [1, 4]: 6.47
pIC50 ([3]; 18 hours, read-out: IC50 for inhibition of LPS induced TNF-α secretion by monocytes): 6.38
Structure (SMILES): CO[C@@H]1[C@@H]2C(=C3CCC(=O)c4c(O)ccc2c43)c2cccc(O)c2[C@@H]1O (relative stereo) [Compound (Ia)]
inhibition at 0.056 µM ([2]; 0.056 µM, read-out: % Inhibition of anti-CD-28 and Anti-CD3 induced IL-2 by T cells): 29.8%
inhibition at 0.11 µM ([2]; 0.11 µM, read-out: % Inhibition of anti-CD-28 and Anti-CD3 induced IL-2 by T cells): 47.3%
inhibition at 0.22 µM ([2]; 0.22 µM, read-out: % Inhibition of anti-CD-28 and Anti-CD3 induced IL-2 by T cells): 106%
inhibition at 0.44 µM ([2]; 0.44 µM, read-out: % Inhibition of anti-CD-28 and Anti-CD3 induced IL-2 by T cells): 88.3%
inhibition at 0.89 µM ([2]; 0.89 µM, read-out: % Inhibition of anti-CD-28 and Anti-CD3 induced IL-2 by T cells): 98.6%
inhibition at 1.8 µM ([2]; 1.8 µM, read-out: % Inhibition of anti-CD-28 and Anti-CD3 induced IL-2 by T cells): 100%
inhibition at 3.6 µM ([2]; 3.6 µM, read-out: % Inhibition of anti-CD-28 and Anti-CD3 induced IL-2 by T cells): 100%
inhibition at 7.1 µM ([2]; 7.1 µM, read-out: % Inhibition of anti-CD-28 and Anti-CD3 induced IL-2 by T cells): 100%
toxicity to T cells (T cells): not toxic
inhibition at 0.056 µM ([1]; Homo sapiens, Jurkat E6.1, 0.056 μM, read-out: % Inhibition of anti-CD28 induced IL-2 by PMA pre-treated Jurkat E6-1): 29%
inhibition at 0.11 µM ([1]; Homo sapiens, Jurkat E6.1, 0.11 μM, read-out: % Inhibition of anti-CD28 induced IL-2 by PMA pre-treated Jurkat E6-1): 30.5%
inhibition at 0.22 µM ([1]; Homo sapiens, Jurkat E6.1, 0.22 μM, read-out: % Inhibition of anti-CD28 induced IL-2 by PMA pre-treated Jurkat E6-1): 36%
inhibition at 0.44 µM ([1]; Homo sapiens, Jurkat E6.1, 0.44 μM, read-out: % Inhibition of anti-CD28 induced IL-2 by PMA pre-treated Jurkat E6-1): 57.8%
inhibition at 0.89 µM ([1]; Homo sapiens, Jurkat E6.1, 0.89 μM, read-out: % Inhibition of anti-CD28 induced IL-2 by PMA pre-treated Jurkat E6-1): 85.4%
inhibition at 1.8 µM ([1]; Homo sapiens, Jurkat E6.1, 1.8 μM, read-out: % Inhibition of anti-CD28 induced IL-2 by PMA pre-treated Jurkat E6-1): 92.2%
inhibition at 3.6 µM ([1]; Homo sapiens, Jurkat E6.1, 3.6 μM, read-out: % Inhibition of anti-CD28 induced IL-2 by PMA pre-treated Jurkat E6-1): 89.1%
inhibition at 7.1 µM ([1]; Homo sapiens, Jurkat E6.1, 7.1 μM, read-out: % Inhibition of anti-CD28 induced IL-2 by PMA pre-treated Jurkat E6-1): 91.5%
inhibition at 0.09 µM ([3]; 0.09 µM, read-out: % Inhibition of LPS induced TNF-a by monocytes): 19%
inhibition at 0.18 µM ([3]; 0.18 µM, read-out: % Inhibition of LPS induced TNF-a by monocytes): 32.1%
inhibition at 0.36 µM ([3]; 0.36 µM, read-out: % Inhibition of LPS induced TNF-a by monocytes): 48.1%
inhibition at 0.7 µM ([3]; 0.7 µM, read-out: % Inhibition of LPS induced TNF-a by monocytes): 57.6%
inhibition at 1.4 µM ([3]; 1.4 µM, read-out: % Inhibition of LPS induced TNF-a by monocytes): 73.2%
inhibition at 2.9 µM ([3]; 2.9 µM, read-out: % Inhibition of LPS induced TNF-a by monocytes): 80%
inhibition at 5.7 µM ([3]; 5.7 µM, read-out: % Inhibition of LPS induced TNF-a by monocytes): 89%

pIC50 (recombinant abl kinase): < 5.30
pIC50 [1, 4]: < 5.10
Structure (SMILES): CCO[C@@H]1c2c(O)cccc2C2=C3CCC(=O)c4c(O)ccc(c43)[C@@H]2[C@H]1OC [Compound 10a]

pIC50 (recombinant abl kinase): < 6.00
Structure (SMILES): COC1C(O)c2c(O)cccc2C2=C3CCC(O)c4c(O)ccc(c43)C21 (single isomer, unassigned) [Compound 2b]

pIC50 (recombinant abl kinase): 5.63
pIC50 [1, 4]: < 5.21
Structure (SMILES): CO[C@H]1[C@H](OC)c2c(O)cccc2C2=C3CCC(=O)c4c(O)ccc(c43)[C@@H]21 (relative stereo) [Compound 11a]
